# Measured values taken from patent publication US20230123334A1, “AMINO LIPID COMPOUND, PREPARATION METHOD THEREFOR, AND APPLICATION THEREOF” (SHENZHEN SHENXIN BIOTECHNOLOGY CO., LTD., priority 2020, published 2023).
# Tested on: HEK293 cells
# Assay: Preliminary screening as DNA vectors, GFP transfection of HEK293 cells
# Assay type: cell-based
# Conditions: amino lipid/DOPE liposome with 75 ng plasmid DNA (psin-EGFP-IRES-Puro); number of GFP-expressing cells divided by total nuclei (Hoechst)
# Procedure, shortened: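 First, amino lipid and DOPE were vortexed in sodium acetate buffer (pH 5.6) to form liposomes. Next, these were held with 75 ng EGFP plasmid at room temperature for 30 min. Finally, HEK293 cells were added, cultured at 37° C., Hoechst-stained, and GFP+/total nuclei scored by imaging.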
row,Compound,Absolute DNA transfection efficiency in HEK293 cells [%]
1,CCCCCCCSc1nc(NCCN2CCCC2)nc(SCCCCCCC)n1 [S7S7 D3],9.2
2,CCCCCCCSc1nc(NCCN2CCCCC2)nc(SCCCCCCC)n1 [S7S7 D4],0.0
3,CCCCCCCSc1nc(NCCN2CCN(C)CC2)nc(SCCCCCCC)n1 [S7S7 D5],4.8
4,CCCCCCCSc1nc(NCCCN(C)C)nc(SCCCCCCC)n1 [S7S7 D6],10.3
5,CCCCCCCSc1nc(NCCN(CC)CC)nc(SCCCCCCC)n1 [S7S7 D7],9.3
6,CCCCCCCSc1nc(NCCCN2CCOCC2)nc(SCCCCCCC)n1 [S7S7 D8],0.6
7,CCCCCCCSc1nc(NCCCN2CCN(C)CC2)nc(SCCCCCCC)n1 [S7S7 D9],7.9
8,CCCCCCCSc1nc(NCC2CCN(C)CC2)nc(SCCCCCCC)n1 [S7S7 D10],5.5
9,CCCCCCCCSc1nc(NCCN(C)C)nc(SCCCCCCC)n1 [S7S8 D1],6.7
10,CCCCCCCCSc1nc(NCCN2CCOCC2)nc(SCCCCCCC)n1 [S7S8 D2],0.0
11,CCCCCCCCSc1nc(NCCN2CCCC2)nc(SCCCCCCC)n1 [S7S8 D3],9.2
12,CCCCCCCCSc1nc(NCCN2CCCCC2)nc(SCCCCCCC)n1 [S7S8 D4],7.0
13,CCCCCCCCSc1nc(NCCN2CCN(C)CC2)nc(SCCCCCCC)n1 [S7S8 D5],11.2
14,CCCCCCCCSc1nc(NCCCN(C)C)nc(SCCCCCCC)n1 [S7S8 D6],3.6
15,CCCCCCCCSc1nc(NCCN(CC)CC)nc(SCCCCCCC)n1 [S7S8 D7],5.8
16,CCCCCCCCSc1nc(NCCCN2CCOCC2)nc(SCCCCCCC)n1 [S7S8 D8],3.7
17,CCCCCCCCSc1nc(NCCCN2CCN(C)CC2)nc(SCCCCCCC)n1 [S7S8 D9],10.2
18,CCCCCCCCSc1nc(NCC2CCN(C)CC2)nc(SCCCCCCC)n1 [S7S8 D10],0.0
19,CCCCCCCCCSc1nc(NCCN(C)C)nc(SCCCCCCC)n1 [S7S9 D1],10.8
20,CCCCCCCCCSc1nc(NCCN2CCOCC2)nc(SCCCCCCC)n1 [S7S9 D2],28.8
21,CCCCCCCCCSc1nc(NCCN2CCCC2)nc(SCCCCCCC)n1 [S7S9 D3],21.5
22,CCCCCCCCCSc1nc(NCCN2CCCCC2)nc(SCCCCCCC)n1 [S7S9 D4],15.1
23,CCCCCCCCCSc1nc(NCCN2CCN(C)CC2)nc(SCCCCCCC)n1 [S7S9 D5],12.5
24,CCCCCCCCCSc1nc(NCCCN(C)C)nc(SCCCCCCC)n1 [S7S9 D6],3.4

row,Compound,Absolute DNA transfection efficiency in HEK293 cells [%]
1,CCCCCCCCCSc1nc(NCCN(CC)CC)nc(SCCCCCCC)n1 [S7S9 D7],14.5
2,CCCCCCCCCSc1nc(NCCCN2CCOCC2)nc(SCCCCCCC)n1 [S7S9 D8],12.2
3,CCCCCCCCCSc1nc(NCCCN2CCN(C)CC2)nc(SCCCCCCC)n1 [S7S9 D9],17.1
4,CCCCCCCCCSc1nc(NCC2CCN(C)CC2)nc(SCCCCCCC)n1 [S7S9 D10],16.3
5,CCCCCCCCCCSc1nc(NCCN(C)C)nc(SCCCCCCC)n1 [S7S10 D1],21.8
6,CCCCCCCCCCSc1nc(NCCN2CCOCC2)nc(SCCCCCCC)n1 [S7S10 D2],23.6
7,CCCCCCCCCCSc1nc(NCCN2CCCC2)nc(SCCCCCCC)n1 [S7S10 D3],19.4
8,CCCCCCCCCCSc1nc(NCCN2CCCCC2)nc(SCCCCCCC)n1 [S7S10 D4],8.1
9,CCCCCCCCCCSc1nc(NCCN2CCN(C)CC2)nc(SCCCCCCC)n1 [S7S10 D5],10.6
10,CCCCCCCCCCSc1nc(NCCCN(C)C)nc(SCCCCCCC)n1 [S7S10 D6],4.7
11,CCCCCCCCCCSc1nc(NCCN(CC)CC)nc(SCCCCCCC)n1 [S7S10 D7],20.2
12,CCCCCCCCCCSc1nc(NCCCN2CCOCC2)nc(SCCCCCCC)n1 [S7S10 D8],18.0
13,CCCCCCCCCCSc1nc(NCCCN2CCN(C)CC2)nc(SCCCCCCC)n1 [S7S10 D9],23.9
14,CCCCCCCCCCSc1nc(NCC2CCN(C)CC2)nc(SCCCCCCC)n1 [S7S10 D10],25.2
15,CCCCCCCCCCCSc1nc(NCCN(C)C)nc(SCCCCCCC)n1 [S7S11 D1],10.8
16,CCCCCCCCCCCSc1nc(NCCN2CCOCC2)nc(SCCCCCCC)n1 [S7S11 D2],27.3
17,CCCCCCCCCCCSc1nc(NCCN2CCCC2)nc(SCCCCCCC)n1 [S7S11 D3],9.7
18,CCCCCCCCCCCSc1nc(NCCN2CCCCC2)nc(SCCCCCCC)n1 [S7S11 D4],14.2
19,CCCCCCCCCCCSc1nc(NCCN2CCN(C)CC2)nc(SCCCCCCC)n1 [S7S11 D5],32.4
20,CCCCCCCCCCCSc1nc(NCCCN(C)C)nc(SCCCCCCC)n1 [S7S11 D6],28.7
21,CCCCCCCCCCCSc1nc(NCCN(CC)CC)nc(SCCCCCCC)n1 [S7S11 D7],10.4
22,CCCCCCCCCCCSc1nc(NCCCN2CCOCC2)nc(SCCCCCCC)n1 [S7S11 D8],11.1
23,CCCCCCCCCCCSc1nc(NCCCN2CCN(C)CC2)nc(SCCCCCCC)n1 [S7S11 D9],25.9
24,CCCCCCCCCCCSc1nc(NCC2CCN(C)CC2)nc(SCCCCCCC)n1 [S7S11 D10],39.1

row,Compound,Absolute DNA transfection efficiency in HEK293 cells [%]
1,CCCCCCCCCCCCSc1nc(NCCN(C)C)nc(SCCCCCCC)n1 [S7S12 D1],8.2
2,CCCCCCCCCCCCSc1nc(NCCN2CCOCC2)nc(SCCCCCCC)n1 [S7S12 D2],18.0
3,CCCCCCCCCCCCSc1nc(NCCN2CCCC2)nc(SCCCCCCC)n1 [S7S12 D3],9.9
4,CCCCCCCCCCCCSc1nc(NCCN2CCCCC2)nc(SCCCCCCC)n1 [S7S12 D4],9.5
5,CCCCCCCCCCCCSc1nc(NCCN2CCN(C)CC2)nc(SCCCCCCC)n1 [S7S12 D5],9.6
6,CCCCCCCCCCCCSc1nc(NCCCN(C)C)nc(SCCCCCCC)n1 [S7S12 D6],11.7
7,CCCCCCCCCCCCSc1nc(NCCN(CC)CC)nc(SCCCCCCC)n1 [S7S12 D7],7.1
8,CCCCCCCCCCCCSc1nc(NCCCN2CCOCC2)nc(SCCCCCCC)n1 [S7S12 D8],10.9
9,CCCCCCCCCCCCSc1nc(NCCCN2CCN(C)CC2)nc(SCCCCCCC)n1 [S7S12 D9],4.8
10,CCCCCCCCCCCCSc1nc(NCC2CCN(C)CC2)nc(SCCCCCCC)n1 [S7S12 D10],21.3
11,CCCCCCCCCCCCCCSc1nc(NCCN(C)C)nc(SCCCCCCC)n1 [S7S14 D1],7.7
12,CCCCCCCCCCCCCCSc1nc(NCCN2CCOCC2)nc(SCCCCCCC)n1 [S7S14 D2],15.9
13,CCCCCCCCCCCCCCSc1nc(NCCN2CCCC2)nc(SCCCCCCC)n1 [S7S14 D3],8.4
14,CCCCCCCCCCCCCCSc1nc(NCCN2CCCCC2)nc(SCCCCCCC)n1 [S7S14 D4],9.1
15,CCCCCCCCCCCCCCSc1nc(NCCN2CCN(C)CC2)nc(SCCCCCCC)n1 [S7S14 D5],10.7
16,CCCCCCCCCCCCCCSc1nc(NCCCN(C)C)nc(SCCCCCCC)n1 [S7S14 D6],4.4
17,CCCCCCCCCCCCCCSc1nc(NCCN(CC)CC)nc(SCCCCCCC)n1 [S7S14 D7],4.0
18,CCCCCCCCCCCCCCSc1nc(NCCCN2CCOCC2)nc(SCCCCCCC)n1 [S7S14 D8],11.0
19,CCCCCCCCCCCCCCSc1nc(NCCCN2CCN(C)CC2)nc(SCCCCCCC)n1 [S7S14 D9],3.8
20,CCCCCCCCCCCCCCSc1nc(NCC2CCN(C)CC2)nc(SCCCCCCC)n1 [S7S14 D10],26.7
21,CCCCCCCCCCCCCCCSc1nc(NCCN(C)C)nc(SCCCCCCC)n1 [S7S15 D1],9.4
22,CCCCCCCCCCCCCCCSc1nc(NCCN2CCOCC2)nc(SCCCCCCC)n1 [S7S15 D2],24.0
